The results in this text go back to patent publication US11926616B2, “Aminopyrazine diol compounds as PI3K-γ inhibitors” (Incyte Corporation, priority 2018, dated 2024).

Where two headings read alike, the source gives them in different places.

Assay [1] has as its system Phosphorylated Ribosomal Protein S6 (RPS6) in THP-1 cells. The assay is described as follows: THP-1 RPS6 ELISA Assay. The class given is cell-based, Human. The following applies: THP-1 cells, serum starved, 2 hours compound, 10 nM MCP-1 for 15 minutes, Phospho-RPS6 ELISA, read-out: PI3Kγ_THP1_RPS6_ELISA IC50. The protocol: Example A. THP-1 RPS6 ELISA Assay
To measure the Phosphorylated Ribosomal Protein S6 (RPS6) in cell lysates, THP-1 cells (Human Acute Monocytic Leukemia) are purchased from ATCC (Manassas, VA) and maintained in RPMI with 10% FBS (Gibco/Life Technologies, Carlsbad, CA). For the assay, THP-1 cells are serum starved overnight in RPMI, then plated in RPMI (2×10^5 cells/well in 90 μL) into 96-well flat-bottom tissue culture treated plates (Corning, Corning, NY), in the presence or absence of a concentration range of test compounds. Covered plates are incubated for 2 hours at 37° C., 5% CO2 then treated with or without 10 nM MCP-1(MYBioSource, San Diego, CA) for 15 minutes at 37° C., 5% CO2. Plates are centrifuged at 1600 RPM and supernatants are removed. Cells are lysed in Lysis Buffer (Cell Signaling, Danvers, MA) with Protease Inhibitor (Calbiochem/EMD, Germany), PMSF (Sigma, St Louis MO), HALTS (Thermo Fisher, Rockford, IL) for 30 min on wet ice. Cell lysates are frozen at −80° C. before testing. The lysates are tested in the Human/Mouse/Rat Phospho-RPS6 ELISA (R&D Systems, Inc. Minn, MN). The plate is measured using a microplate reader (SpectraMax M5—Molecular Devices, LLC Sunnyvale, CA) set to 450 nm with a wavelength correction of 540. IC50 determination is performed by fitting the curve of inhibitor percent inhibition versus the log of the inhibitor concentration using the GraphPad Prism 5.0 software.

Assay [2] has as its target PI3Kγ (p110γ) Recombinant Human Protein (Homo sapiens (Human), UniProt P48736). The assay is described as follows: PI3K-γ Scintillation Proximity Assay. The class given is biochemical. The note with it: 20 μM PIP2, 2 μM ATP, 13 nM PI3Kγ, 120 min, room temperature. An excerpt: Example B. PI3K-γ Scintillation Proximity Assay Materials: [γ-^33P]ATP (10 mCi/mL) and Wheat Germ Agglutinin (WGA) YSi SPA Scintillation Beads was purchased from Perkin Elmer (Waltham, MA). Lipid kinase substrate, D-myo-Phosphatidylinositol 4,5-bisphosphate (PtdIns(4,5)P2)D (+)-sn-1,2-di-O-octanoylglyceryl, 3-O-phospho linked (PIP2), CAS 204858-53-7, was purchased from Echelon Biosciences (Salt Lake City, UT). PI3Kγ (p110γ) Recombinant Human Protein was purchased from Life technology (Grand Island, NY). ATP, MgCl2, DTT, EDTA, MOPS and CHAPS were purchased from Sigma Aldrich (St. Louis, MO). The kinase reaction was conducted in polystyrene 384-well Greiner Bio-one white plate from Thermo Fisher Scientific in a final volume of 25 μL. Inhibitors were first diluted serially in DMSO and added to the plate wells before the addition of other reaction components. The final concentration of DMSO in the assay was 2%. The PI3Kγ assay was carried out at room temperature in 20 mM MOPS, pH 6.7, 10 mM MgCl2, 5 mM DTT and CHAPS 0.03%. Reactions were initiated by the addition of ATP, the final reaction mixture consisted of 20 μM PIP2, 2 μM ATP, 0.5 μCi [γ-^33P] ATP, 13 nM PI3Kγ. Reactions were incubated for 120 min and terminated by the addition of 40 μL SPA beads suspended in quench buffer: 163 mM potassium phosphate pH 7.8, 20% glycerol, 25 mM EDTA. The final concentration of SPA beads is 1.0 mg/mL. After the plate sealing, plates were shaken overnight at room temperature and centrifuged at 1500 rpm for 10 min, the radioactivity of the product was determined by scintillation counting on Topcount (Perkin-Elmer). IC50 determination was performed by fitting the curve of percent of the solvent control activity versus the log of the inhibitor concentration using the GraphPad Prism 6.0 software.

Assay [3] deals with PI3Kδ (p110δ/p85α) Recombinant Human Protein (Homo sapiens (Human), UniProt O00329). Briefly: PI3Kδ Scintillation Proximity Assay. The class given is biochemical. The note with it: 20 μM PIP2, 2 μM ATP, 3.4 nM PI3Kδ, 120 min, room temperature. An excerpt:
Example C. PI3Kδ Scintillation Proximity Assay Materials: [γ-^33P]ATP (10 mCi/mL) and Wheat Germ Agglutinin (WGA) YSi SPA Scintillation Beads was purchased from Perkin Elmer (Waltham, MA). Lipid kinase substrate, D-myo-Phosphatidylinositol 4,5-bisphosphate (PtdIns(4,5)P2)D (+)-sn-1,2-di-O-octanoylglyceryl, 3-O-phospho linked (PIP2), CAS 204858-53-7, was purchased from Echelon Biosciences (Salt Lake City, UT). PI3Kδ (p110δ/p85α) Recombinant Human Protein was purchased from Eurofins (St Charles, MO). ATP, MgCl2, DTT, EDTA, MOPS and CHAPS were purchased from Sigma Aldrich (St. Louis, MO). The kinase reaction was conducted in polystyrene 384-well Greiner Bio-one white plate from Thermo Fisher Scientific in a final volume of 25 μL. Inhibitors were first diluted serially in DMSO and added to the plate wells before the addition of other reaction components. The final concentration of DMSO in the assay was 2%. The PI3Kδ assay was carried out at room temperature in 20 mM MOPS, pH 6.7, 10 mM MgCl2, 5 mM DTT and CHAPS 0.03%. Reactions were initiated by the addition of ATP, the final reaction mixture consisted of 20 μM PIP2, 2 μM ATP, […] [γ-^33P] ATP, 3.4 nM PI3Kδ. Reactions were incubated for 120 min and terminated by the addition of 40 μL SPA beads suspended in quench buffer: 163 mM potassium phosphate pH 7.8, 20% glycerol, 25 mM EDTA. The final concentration of SPA beads is 1.0 mg/mL. After the plate sealing, plates were shaken overnight at room temperature and centrifuged at 1500 rpm for 10 min, the radioactivity of the product was determined by scintillation counting on Topcount (PerkinElmer). IC50 determination was performed by fitting the curve of percent of the solvent control activity versus the log of the inhibitor concentration using the GraphPad Prism 6.0 software.

PI3Kδ (p110δ/p85α) Recombinant Human Protein, sequence (O00329 whole entry): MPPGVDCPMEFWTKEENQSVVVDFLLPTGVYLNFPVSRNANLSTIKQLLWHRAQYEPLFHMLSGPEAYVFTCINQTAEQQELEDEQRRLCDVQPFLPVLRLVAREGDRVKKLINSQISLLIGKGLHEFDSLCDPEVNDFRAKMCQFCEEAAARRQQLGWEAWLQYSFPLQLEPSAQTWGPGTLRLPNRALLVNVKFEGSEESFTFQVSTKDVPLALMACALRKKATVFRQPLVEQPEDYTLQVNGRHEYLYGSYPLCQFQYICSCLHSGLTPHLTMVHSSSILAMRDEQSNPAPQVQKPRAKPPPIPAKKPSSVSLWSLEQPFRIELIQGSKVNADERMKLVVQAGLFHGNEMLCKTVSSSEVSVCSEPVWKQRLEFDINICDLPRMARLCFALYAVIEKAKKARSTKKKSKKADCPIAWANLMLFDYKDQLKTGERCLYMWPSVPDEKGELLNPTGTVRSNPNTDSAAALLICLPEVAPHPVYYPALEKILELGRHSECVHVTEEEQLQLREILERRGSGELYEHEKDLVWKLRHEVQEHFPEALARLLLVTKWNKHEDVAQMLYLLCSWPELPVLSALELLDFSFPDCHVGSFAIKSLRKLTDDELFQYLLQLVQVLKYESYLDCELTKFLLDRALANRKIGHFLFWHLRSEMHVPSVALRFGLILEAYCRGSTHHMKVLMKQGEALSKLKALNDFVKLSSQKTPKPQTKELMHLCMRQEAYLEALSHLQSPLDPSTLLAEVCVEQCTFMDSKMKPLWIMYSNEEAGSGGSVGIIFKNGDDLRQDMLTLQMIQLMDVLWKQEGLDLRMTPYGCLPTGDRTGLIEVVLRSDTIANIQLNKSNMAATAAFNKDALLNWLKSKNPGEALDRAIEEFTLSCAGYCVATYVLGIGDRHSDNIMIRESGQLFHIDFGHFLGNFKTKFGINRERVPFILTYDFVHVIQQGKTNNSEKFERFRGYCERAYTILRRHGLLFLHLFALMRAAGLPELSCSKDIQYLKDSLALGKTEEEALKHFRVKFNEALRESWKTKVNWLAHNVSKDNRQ
PI3Kδ (p110δ/p85α) Recombinant Human Protein, sequence (P27986 whole entry partner): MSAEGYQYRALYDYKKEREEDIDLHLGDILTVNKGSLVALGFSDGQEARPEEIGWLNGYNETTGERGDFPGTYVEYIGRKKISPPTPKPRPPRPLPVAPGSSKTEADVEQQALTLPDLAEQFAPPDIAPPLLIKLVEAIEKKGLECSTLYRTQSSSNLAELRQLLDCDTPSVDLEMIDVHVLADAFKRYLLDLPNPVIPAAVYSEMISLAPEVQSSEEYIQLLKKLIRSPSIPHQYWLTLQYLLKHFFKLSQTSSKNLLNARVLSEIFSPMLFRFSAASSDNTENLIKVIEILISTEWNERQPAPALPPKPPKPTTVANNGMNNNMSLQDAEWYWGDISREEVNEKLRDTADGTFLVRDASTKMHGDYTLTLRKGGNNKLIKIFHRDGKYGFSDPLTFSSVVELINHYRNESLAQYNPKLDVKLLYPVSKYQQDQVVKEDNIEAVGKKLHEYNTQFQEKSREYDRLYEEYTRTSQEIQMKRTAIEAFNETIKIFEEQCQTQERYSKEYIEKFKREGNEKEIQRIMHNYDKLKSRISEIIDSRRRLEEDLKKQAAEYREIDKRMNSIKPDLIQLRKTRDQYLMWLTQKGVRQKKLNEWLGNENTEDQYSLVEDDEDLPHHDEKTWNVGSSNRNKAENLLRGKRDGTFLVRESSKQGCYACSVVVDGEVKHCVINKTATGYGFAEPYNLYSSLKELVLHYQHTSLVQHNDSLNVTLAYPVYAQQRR
PI3Kγ (p110γ) Recombinant Human Protein, sequence (P48736 whole entry): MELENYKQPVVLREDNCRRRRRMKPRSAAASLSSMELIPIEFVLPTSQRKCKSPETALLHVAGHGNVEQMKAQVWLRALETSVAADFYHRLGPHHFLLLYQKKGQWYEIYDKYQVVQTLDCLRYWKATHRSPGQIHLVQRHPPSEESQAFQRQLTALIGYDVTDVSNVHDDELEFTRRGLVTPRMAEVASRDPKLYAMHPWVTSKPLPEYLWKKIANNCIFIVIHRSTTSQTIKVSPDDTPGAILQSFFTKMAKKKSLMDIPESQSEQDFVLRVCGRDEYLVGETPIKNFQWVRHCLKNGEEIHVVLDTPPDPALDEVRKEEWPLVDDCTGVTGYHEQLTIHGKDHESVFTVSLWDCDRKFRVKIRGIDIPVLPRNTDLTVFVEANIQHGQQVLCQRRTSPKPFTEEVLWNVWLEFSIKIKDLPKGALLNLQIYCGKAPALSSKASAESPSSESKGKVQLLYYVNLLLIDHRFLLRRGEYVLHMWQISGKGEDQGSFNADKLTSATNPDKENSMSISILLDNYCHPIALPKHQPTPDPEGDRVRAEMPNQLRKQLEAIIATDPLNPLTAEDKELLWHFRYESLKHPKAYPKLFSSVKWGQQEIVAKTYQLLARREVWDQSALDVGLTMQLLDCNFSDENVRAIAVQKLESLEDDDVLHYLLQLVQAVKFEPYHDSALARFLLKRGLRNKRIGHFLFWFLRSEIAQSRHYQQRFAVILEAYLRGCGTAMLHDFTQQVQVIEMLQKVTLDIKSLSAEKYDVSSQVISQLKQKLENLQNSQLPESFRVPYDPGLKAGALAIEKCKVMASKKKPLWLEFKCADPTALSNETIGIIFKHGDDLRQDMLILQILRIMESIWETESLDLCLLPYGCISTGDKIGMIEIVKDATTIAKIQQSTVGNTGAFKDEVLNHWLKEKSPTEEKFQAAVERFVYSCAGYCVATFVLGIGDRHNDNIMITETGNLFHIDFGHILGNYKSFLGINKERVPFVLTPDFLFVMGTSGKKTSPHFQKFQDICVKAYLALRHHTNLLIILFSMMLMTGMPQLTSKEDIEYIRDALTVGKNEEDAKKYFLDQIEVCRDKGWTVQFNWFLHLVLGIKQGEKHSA

`[2H]C([2H])([2H])c1ccc(C(O)(CO)C(F)(F)F)cc1-c1cnc(N)c(C(=O)NC23CCC(CO)(C2)C3)n1` (single isomer, unassigned) [Example 31]: the IC50 in assay [1] (Homo sapiens) is less than 100 nM; in assay [2], no more than 100 nM; in assay [3], no more than 100 nM.
Consider `[2H]C([2H])([2H])c1ccc(C(O)(CO)C(F)(F)F)cc1-c1cnc(N)c(C(=O)NC23CCC(O)(C2)C3)n1` (single isomer, unassigned) [Example 37], for which the results for the IC50 in assay [1] (Homo sapiens), in assay [2] and in assay [3] were less than 100 nM, no more than 100 nM and no more than 100 nM, respectively.
Take `[2H]C([2H])([2H])c1ccc(C(O)(CO)C(F)F)cc1-c1cnc(N)c(C(=O)N[C@H]2CCCC[C@@H]2O)n1` (single isomer, unassigned) [Example 38]: the IC50 was less than 500 nM in assay [1] (Homo sapiens), no more than 100 nM in assay [2] and less than 2000 nM in assay [3].
`[2H]C([2H])([2H])c1ccc(C(O)(CO)C(F)F)cc1-c1cnc(N)c(C(=O)N[C@@H]2CCCC[C@H]2O)n1` (single isomer, unassigned) [Example 39]: the IC50 was less than 500 nM in assay [1] (Homo sapiens), no more than 100 nM in assay [2] and less than 2000 nM in assay [3].
Turning to `[2H]C([2H])([2H])c1ccc(C(O)(CO)C(F)F)cc1-c1cnc(N)c(C(=O)NC23CCC(C#N)(C2)C3)n1` (single isomer, unassigned) [Example 40], the results for the IC50 in assay [1] (Homo sapiens), in assay [2] and in assay [3] were less than 100 nM, no more than 100 nM and no more than 100 nM, respectively.
As for `[2H]C([2H])([2H])c1ccc(C(O)(CO)C(F)F)cc1-c1cnc(N)c(C(=O)NC2CCOCC2)n1` (single isomer, unassigned) [Example 41], the values for the IC50 in assay [1] (Homo sapiens), in assay [2] and in assay [3] were less than 100 nM, no more than 100 nM and no more than 100 nM, respectively.
As for `Cc1ccc(C(O)(CO)C(F)F)cc1-c1cnc(N)c(C(=O)NC2CCOCC2)n1` (single isomer, unassigned) [Example 42], the IC50 in assay [1] (Homo sapiens) is less than 100 nM; in assay [2], no more than 100 nM; in assay [3] it was no more than 100 nM.
Turning to `Cc1ccc([C@](O)(CO)C(F)F)cc1-c1cnc(N)c(C(=O)N[C@@H](C)CO)n1` (single isomer, unassigned) [Example 43], the IC50 in assay [1] (Homo sapiens) is less than 500 nM; in assay [2], no more than 100 nM; in assay [3], no more than 500 nM.
In the case of `Cc1ccc(C(O)(CO)C(F)F)cc1-c1cnc(N)c(C(=O)NC23CCC(O)(CC2)C3)n1` (single isomer, unassigned) [Example 44, 3-Amino-6-(5-(1,1-difluoro-2,3-dihydroxypropan-2-yl)-2-methylphenyl)-N-(4-hydroxybicyclo[2.2.1]heptan-1-yl)pyrazine-2-carboxamide], the IC50 in assay [1] (Homo sapiens) is less than 100 nM; in assay [2], no more than 100 nM; in assay [3], no more than 100 nM.
For `Cc1ccc(C(O)(CO)C(F)F)cc1-c1cnc(N)c(C(=O)NC23CCC(C#N)(C2)C3)n1` (single isomer, unassigned) [Example 48, 3-Amino-N-(4-cyanobicyclo[2.1.1]hexan-1-yl)-6-(5-(1,1-difluoro-2,3-dihydroxypropan-2-yl)-2-methylphenyl)pyrazine-2-carboxamide], the results for the IC50 in assay [1] (Homo sapiens), in assay [2] and in assay [3] were less than 100 nM, no more than 100 nM and no more than 100 nM, respectively.
For the compound `[2H]C([2H])([2H])c1ccc(C(O)(C(O)C(F)(F)F)C(F)(F)F)cc1-c1cnc(N)c(-c2c[nH]nc2C)n1` (stereo not drawn) [Example 21, 2-(3-(5-Amino-6-(3-methyl-1H-pyrazol-4-yl)pyrazin-2-yl)-4-(methyl-d3)phenyl)-1,1,1,4,4,4-hexafluorobutane-2,3-diol], the IC50 is less than 100 nM in assay [1] (Homo sapiens), no more than 100 nM in assay [2] and no more than 100 nM in assay [3].
For the compound `Cc1ccc(C(O)(C(C)(C)O)C(F)(F)F)cc1-c1cnc(N)c(C(=O)NC2CCOCC2)n1` (stereo not drawn) [Example 22, 3-Amino-6-(2-methyl-5-(1,1,1-trifluoro-2,3-dihydroxy-3-methylbutan-2-yl)phenyl)-N-(tetrahydro-2H-pyran-4-yl)pyrazine-2-carboxamide], the IC50 in assay [1] (Homo sapiens) was less than 100 nM; in assay [2], no more than 100 nM; in assay [3] it was no more than 500 nM.
For the compound `Cc1ccc(C(O)(CO)C(F)(F)F)cc1-c1cnc(N)c(C2CN(S(=O)(=O)c3ccn(C)n3)C2)n1` (stereo not drawn) [Example 23, 2-(3-(5-Amino-6-(1-((1-methyl-1H-pyrazol-3-yl)sulfonyl)azetidin-3-yl)pyrazin-2-yl)-4-methylphenyl)-3,3,3-trifluoropropane-1,2-diol], the figures for the IC50 in assay [1] (Homo sapiens), in assay [2] and in assay [3] were less than 500 nM, no more than 100 nM and no more than 500 nM, respectively.
With `Cc1ccc([C@](O)(CO)C(F)F)cc1-c1cnc(N)c(C(=O)N2CCC[C@@H]2CO)n1` [Example 45, (3-Amino-6-(5-((S)-1,1-difluoro-2,3-dihydroxypropan-2-yl)-2-methylphenyl)pyrazin-2-yl)((R)-2-(hydroxymethyl)pyrrolidin-1-yl)methanone], the IC50 in assay [1] was less than 500 nM; in assay [2] it was no more than 100 nM; in assay [3] it was less than 2000 nM.
For the compound `Cc1ccc(C(O)(CO)C(F)F)cc1-c1cnc(N)c(C(=O)NC2(C)CCOC2)n1` [Example 47, 3-amino-6-(5-((S)-1,1-difluoro-2,3-dihydroxypropan-2-yl)-2-methylphenyl)-N-(3-methyltetrahydrofuran-3-yl)pyrazine-2-carboxamide], the figures for the IC50 in assay [1] (Homo sapiens), in assay [2] and in assay [3] were less than 100 nM, no more than 100 nM and no more than 100 nM, respectively.
